Active and inactive are the calls of the source.
How the values were obtained:
[1] = system: HEK293; assay: Fluorescence-based counterscreen for potentiators or agonists of NPY-Y2: cell-based high-throughput dose response assay to identify inhibitors of cyclic nucleotide gated ion channel (CNGC) activity. In this assay, the parental HEK293 cell line transfected with a cyclic-nucleotide gated ion channel (CNGC)-based cAMP sensor is used to measure inhibition of isoproterenol-induced CNGC activity by test compound.; format: functional; conditions: Homo sapiens
[2] = molecular target: T1, Heat shock factor protein 1 (Mus musculus, UniProt P38532); assay: HSF1 potentiators in luciferase reporter cells, confirmation, cell-based, NIH3T3, luminescence, dose retest (AID 435004); format: functional;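 also: stress induced by proteasome inhibitor MG132 added 30 min after compound; luciferase reporter driven by HSF1 response element in NIH3T3 cells; actives raise luminescence as potentiators of the MG132 stress response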
T1 sequence (P38532 whole entry): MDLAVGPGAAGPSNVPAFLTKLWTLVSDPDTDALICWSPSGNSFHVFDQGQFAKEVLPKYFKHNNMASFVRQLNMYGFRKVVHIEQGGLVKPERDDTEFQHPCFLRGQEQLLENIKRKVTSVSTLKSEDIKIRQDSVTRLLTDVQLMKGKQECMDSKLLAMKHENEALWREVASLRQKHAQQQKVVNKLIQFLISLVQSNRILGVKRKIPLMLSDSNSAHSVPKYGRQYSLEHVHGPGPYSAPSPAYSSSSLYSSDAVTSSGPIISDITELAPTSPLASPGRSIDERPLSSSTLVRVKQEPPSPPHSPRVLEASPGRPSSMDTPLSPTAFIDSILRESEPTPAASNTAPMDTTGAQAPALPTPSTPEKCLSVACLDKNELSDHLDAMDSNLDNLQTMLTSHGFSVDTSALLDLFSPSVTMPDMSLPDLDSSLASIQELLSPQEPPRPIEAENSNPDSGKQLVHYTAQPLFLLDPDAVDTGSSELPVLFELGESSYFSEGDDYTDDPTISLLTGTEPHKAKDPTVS

[3] = molecular target: T2, Neuropeptide Y receptor type 2 (Homo sapiens, UniProt P49146); assay: Fluorescence-based cell-based high-throughput dose response assay for agonists of NPY-Y2. [Related pubchem assays: 1703 (Screening assay (CNGC inhibitors).), 1359 (Screening assay (NPY-Y2 potentiators or agonists).), 1304 (Screening assay (NPY-Y1 potentiators or agonists).), 1710 (Screening assay (NPY-Y2 agonists).), 1791 (Summary AID.)]; format: functional
T2 sequence (P49146 whole entry): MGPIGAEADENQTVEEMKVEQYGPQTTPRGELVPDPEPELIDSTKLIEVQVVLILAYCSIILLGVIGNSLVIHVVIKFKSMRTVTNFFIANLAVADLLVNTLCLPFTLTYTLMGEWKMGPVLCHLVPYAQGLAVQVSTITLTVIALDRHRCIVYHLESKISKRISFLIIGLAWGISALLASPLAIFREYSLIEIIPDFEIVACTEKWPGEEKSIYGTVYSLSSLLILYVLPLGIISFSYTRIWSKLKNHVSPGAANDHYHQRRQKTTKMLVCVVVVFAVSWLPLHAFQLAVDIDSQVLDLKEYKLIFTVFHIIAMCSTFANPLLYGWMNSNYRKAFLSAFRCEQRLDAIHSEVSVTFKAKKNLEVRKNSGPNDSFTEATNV

[4] = molecular target: T3, Neuropeptide Y receptor type 1 (Homo sapiens, UniProt P25929); assay: Fluorescence-based counterscreen for agonists of NPY-Y2: cell-based high-throughput dose response assay for agonists of NPY-Y1.; format: functional
T3 sequence (P25929 whole entry): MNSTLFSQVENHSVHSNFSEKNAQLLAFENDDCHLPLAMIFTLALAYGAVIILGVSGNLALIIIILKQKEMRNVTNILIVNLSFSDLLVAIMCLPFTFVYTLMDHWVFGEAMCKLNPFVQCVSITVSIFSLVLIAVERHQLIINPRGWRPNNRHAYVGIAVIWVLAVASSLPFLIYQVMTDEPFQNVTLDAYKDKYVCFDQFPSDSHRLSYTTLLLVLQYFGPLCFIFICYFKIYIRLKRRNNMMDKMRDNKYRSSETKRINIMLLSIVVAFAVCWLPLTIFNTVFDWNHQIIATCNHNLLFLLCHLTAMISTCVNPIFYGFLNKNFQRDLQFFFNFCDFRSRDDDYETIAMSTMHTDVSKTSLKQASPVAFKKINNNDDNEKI

[5] = system: HEK293; assay: cells; format: functional, cell-based; conditions: Homo sapiens
[6] = system: HEK293; assay: cells; format: functional, cell-based; conditions: Homo sapiens; remark: listed apart in the source
[7] = molecular target: Nucleotide-binding oligomerization domain-containing protein 2 (Homo sapiens, UniProt Q9HC29); assay: NOD2 signaling inhibitors, cell-based, luminescence, uHTS, HEK293 (AID 1566); format: functional
[8] = system: HEK293; assay: NOD2 signaling inhibitors in MDP-stimulated cells, cell-based, uHTS, luminescence (AID 2001); format: functional; conditions: Homo sapiens
[9] = system: HEK293; assay: NOD1 signaling inhibitors, primary screen, cell-based, luminescence, uHTS (AID 1578); format: functional; conditions: Homo sapiens
[10] = system: HEK293; assay: cells; format: functional, cell-based; conditions: Homo sapiens; remark: listed apart in the source
[11] = molecular target: Voltage-dependent T-type calcium channel subunit alpha-1H (Homo sapiens, UniProt O95180); format: functional;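 also: channel activity triggered by adding a high calcium stimulation buffer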
[12] = molecular target: DNA dC->dU-editing enzyme APOBEC-3A (Homo sapiens, UniProt P31941); assay: APOBEC3A DNA deaminase inhibitors, dose response, biochemical (AID 504722); format: functional
[13] = molecular target: DNA dC->dU-editing enzyme APOBEC-3G (Homo sapiens, UniProt Q9HC16); assay: Dose Response confirmation of small molecule APOBEC3G DNA Deaminase Inhibitors via a fluorescence-based single-stranded DNA deaminase assay. [Related pubchem assays (depositor defined):AID493012, AID493028]; format: functional
[14] = Intein inhibitors as potential Tuberculosis drugs, a cytotoxicity screen. [Related pubchem assays (depositor defined):AID2221, AID2223, AID434968, AID435010, AID449749, AID449750, AID489010]; format: functional
[15] = molecular target: T4, Protein RecA (Mycobacterium tuberculosis, UniProt P9WHJ3); assay: Fluorescence Cell-Free Homogeneous Dose Retest to Identify Inhibitors of RecA-Intein Splicing Activity. [Related pubchem assays (depositor defined):AID2097, AID2223, AID489010, AID492950]; format: functional
T4 sequence (P9WHJ3 whole entry): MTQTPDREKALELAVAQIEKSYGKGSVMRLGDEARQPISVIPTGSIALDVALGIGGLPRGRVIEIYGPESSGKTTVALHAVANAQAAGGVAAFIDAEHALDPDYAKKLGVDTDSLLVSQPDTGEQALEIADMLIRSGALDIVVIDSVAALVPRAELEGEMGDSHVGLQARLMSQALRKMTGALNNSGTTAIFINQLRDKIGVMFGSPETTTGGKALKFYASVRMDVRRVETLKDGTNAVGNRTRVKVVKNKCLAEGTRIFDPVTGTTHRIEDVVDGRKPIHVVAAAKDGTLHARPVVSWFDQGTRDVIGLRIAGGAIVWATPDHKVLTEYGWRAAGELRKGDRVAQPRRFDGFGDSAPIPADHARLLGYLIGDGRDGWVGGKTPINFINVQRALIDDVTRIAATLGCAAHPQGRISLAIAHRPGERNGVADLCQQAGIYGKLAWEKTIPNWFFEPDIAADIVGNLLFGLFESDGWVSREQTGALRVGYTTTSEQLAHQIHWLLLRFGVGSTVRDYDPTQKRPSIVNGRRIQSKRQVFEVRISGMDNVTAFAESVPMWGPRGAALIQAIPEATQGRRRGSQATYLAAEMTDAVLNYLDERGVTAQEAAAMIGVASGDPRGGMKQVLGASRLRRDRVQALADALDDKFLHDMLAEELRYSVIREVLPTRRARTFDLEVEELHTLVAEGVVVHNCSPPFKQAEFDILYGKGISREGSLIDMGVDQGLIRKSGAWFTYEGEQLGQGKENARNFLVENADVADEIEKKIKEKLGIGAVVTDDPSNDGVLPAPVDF

[16] = molecular target: T5, Replicative DNA helicase DnaB (Mycobacterium tuberculosis, UniProt P9WMR3); assay: DnaB intein splicing inhibitors, dose response, biochemical, cell-free fluorescence (AID 449749); format: functional
T5 sequence (P9WMR3 whole entry): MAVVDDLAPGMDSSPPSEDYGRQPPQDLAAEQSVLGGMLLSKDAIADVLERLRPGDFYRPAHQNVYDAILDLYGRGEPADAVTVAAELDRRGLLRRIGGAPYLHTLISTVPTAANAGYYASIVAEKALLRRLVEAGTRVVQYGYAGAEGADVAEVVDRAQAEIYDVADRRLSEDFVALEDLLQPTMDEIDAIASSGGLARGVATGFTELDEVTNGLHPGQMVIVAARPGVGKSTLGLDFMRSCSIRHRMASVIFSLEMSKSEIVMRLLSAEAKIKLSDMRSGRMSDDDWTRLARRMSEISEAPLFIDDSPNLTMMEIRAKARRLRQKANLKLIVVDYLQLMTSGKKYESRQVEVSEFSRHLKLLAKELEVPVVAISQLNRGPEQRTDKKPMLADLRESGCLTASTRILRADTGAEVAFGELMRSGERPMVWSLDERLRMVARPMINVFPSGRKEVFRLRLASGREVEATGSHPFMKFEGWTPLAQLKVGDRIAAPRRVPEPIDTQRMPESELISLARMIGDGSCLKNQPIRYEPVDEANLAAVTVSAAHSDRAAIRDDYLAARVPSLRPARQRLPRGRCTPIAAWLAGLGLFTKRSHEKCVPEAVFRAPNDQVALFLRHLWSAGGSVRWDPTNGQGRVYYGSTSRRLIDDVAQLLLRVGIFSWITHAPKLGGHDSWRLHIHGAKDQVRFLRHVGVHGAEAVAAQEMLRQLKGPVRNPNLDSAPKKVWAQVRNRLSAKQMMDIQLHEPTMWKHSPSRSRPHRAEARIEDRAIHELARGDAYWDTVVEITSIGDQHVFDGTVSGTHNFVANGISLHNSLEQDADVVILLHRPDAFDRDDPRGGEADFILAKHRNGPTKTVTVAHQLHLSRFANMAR

[17] = system: BJ; assay: cytotoxicity toward BJ-TERT fibroblasts, dose response, cell-based, RAS-independent, luminescence (AID 1933); format: functional; conditions: Homo sapiens
[18] = system: BJ; assay: cytotoxicity toward BJ-TERT-LT-ST fibroblasts, dose response, cell-based, RAS-independent, luminescence (AID 1935); format: functional; conditions: Homo sapiens;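 also: BJ fibroblasts immortalized with TERT plus LT and ST oncogenes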
[19] = non-specific cell cytotoxicity, dose response, cytotoxicity control for PAX8 inhibitor project, plate reader, dry powder samples (AID 743021); format: functional, cell-based
[20] = system: BJ; assay: cells; format: functional, cell-based; conditions: Homo sapiens
[21] = cytotoxicity toward DRD oncogenic fibroblasts, dose response, cell-based, non-viral oncogenic, luminescence (AID 1934); format: functional; conditions: Homo sapiens
[22] = molecular target: Paired box protein Pax-8 (Homo sapiens, UniProt Q06710); assay: inhibitors of PAX8-driven TPO luciferase reporter, dose response, RMG-I cells, cherry-pick (AID 687027); format: functional, cell-based;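 also: luciferase reporter driven by Pax8 target thyroperoxidase promoter measured by SteadyGlo luminescence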
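For CC50 in this document: cells exposed to compound for 72 hours before luminescence readout.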

Nucleotide-binding oligomerization domain-containing protein 2, sequence (Q9HC29 whole entry, the tested form may be a part): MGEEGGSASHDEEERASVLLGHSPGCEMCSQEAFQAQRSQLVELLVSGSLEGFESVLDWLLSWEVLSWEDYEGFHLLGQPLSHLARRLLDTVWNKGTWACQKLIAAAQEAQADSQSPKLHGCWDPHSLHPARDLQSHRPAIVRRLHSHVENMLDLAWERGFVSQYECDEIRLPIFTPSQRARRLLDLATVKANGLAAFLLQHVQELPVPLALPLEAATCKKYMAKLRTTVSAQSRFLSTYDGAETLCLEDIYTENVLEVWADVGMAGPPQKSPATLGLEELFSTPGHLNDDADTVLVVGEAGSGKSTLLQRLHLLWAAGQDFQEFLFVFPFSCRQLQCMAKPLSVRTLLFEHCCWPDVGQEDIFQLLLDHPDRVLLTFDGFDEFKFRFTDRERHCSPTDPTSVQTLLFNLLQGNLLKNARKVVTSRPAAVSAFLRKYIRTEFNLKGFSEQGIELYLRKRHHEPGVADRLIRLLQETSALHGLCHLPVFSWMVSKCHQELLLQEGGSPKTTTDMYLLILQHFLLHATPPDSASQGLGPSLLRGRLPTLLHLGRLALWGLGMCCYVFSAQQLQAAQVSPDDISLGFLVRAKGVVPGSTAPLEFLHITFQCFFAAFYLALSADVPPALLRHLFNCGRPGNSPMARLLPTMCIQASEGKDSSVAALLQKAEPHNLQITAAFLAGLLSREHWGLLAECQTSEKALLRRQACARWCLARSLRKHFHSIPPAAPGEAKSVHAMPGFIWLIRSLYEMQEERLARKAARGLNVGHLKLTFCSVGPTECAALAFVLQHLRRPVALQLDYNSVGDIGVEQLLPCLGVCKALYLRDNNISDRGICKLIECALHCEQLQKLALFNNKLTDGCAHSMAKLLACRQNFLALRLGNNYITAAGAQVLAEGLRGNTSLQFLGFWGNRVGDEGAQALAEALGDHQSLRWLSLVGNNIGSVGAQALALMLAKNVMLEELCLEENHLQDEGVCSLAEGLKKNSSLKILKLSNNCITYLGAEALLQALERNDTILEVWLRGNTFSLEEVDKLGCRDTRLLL
DNA dC->dU-editing enzyme APOBEC-3A, sequence (P31941 whole entry): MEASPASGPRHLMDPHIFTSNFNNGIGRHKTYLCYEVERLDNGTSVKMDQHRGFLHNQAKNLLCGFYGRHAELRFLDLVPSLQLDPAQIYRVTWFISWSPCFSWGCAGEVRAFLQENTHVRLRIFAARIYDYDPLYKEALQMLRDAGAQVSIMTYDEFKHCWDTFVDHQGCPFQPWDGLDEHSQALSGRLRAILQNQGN
Voltage-dependent T-type calcium channel subunit alpha-1H, sequence (O95180 whole entry): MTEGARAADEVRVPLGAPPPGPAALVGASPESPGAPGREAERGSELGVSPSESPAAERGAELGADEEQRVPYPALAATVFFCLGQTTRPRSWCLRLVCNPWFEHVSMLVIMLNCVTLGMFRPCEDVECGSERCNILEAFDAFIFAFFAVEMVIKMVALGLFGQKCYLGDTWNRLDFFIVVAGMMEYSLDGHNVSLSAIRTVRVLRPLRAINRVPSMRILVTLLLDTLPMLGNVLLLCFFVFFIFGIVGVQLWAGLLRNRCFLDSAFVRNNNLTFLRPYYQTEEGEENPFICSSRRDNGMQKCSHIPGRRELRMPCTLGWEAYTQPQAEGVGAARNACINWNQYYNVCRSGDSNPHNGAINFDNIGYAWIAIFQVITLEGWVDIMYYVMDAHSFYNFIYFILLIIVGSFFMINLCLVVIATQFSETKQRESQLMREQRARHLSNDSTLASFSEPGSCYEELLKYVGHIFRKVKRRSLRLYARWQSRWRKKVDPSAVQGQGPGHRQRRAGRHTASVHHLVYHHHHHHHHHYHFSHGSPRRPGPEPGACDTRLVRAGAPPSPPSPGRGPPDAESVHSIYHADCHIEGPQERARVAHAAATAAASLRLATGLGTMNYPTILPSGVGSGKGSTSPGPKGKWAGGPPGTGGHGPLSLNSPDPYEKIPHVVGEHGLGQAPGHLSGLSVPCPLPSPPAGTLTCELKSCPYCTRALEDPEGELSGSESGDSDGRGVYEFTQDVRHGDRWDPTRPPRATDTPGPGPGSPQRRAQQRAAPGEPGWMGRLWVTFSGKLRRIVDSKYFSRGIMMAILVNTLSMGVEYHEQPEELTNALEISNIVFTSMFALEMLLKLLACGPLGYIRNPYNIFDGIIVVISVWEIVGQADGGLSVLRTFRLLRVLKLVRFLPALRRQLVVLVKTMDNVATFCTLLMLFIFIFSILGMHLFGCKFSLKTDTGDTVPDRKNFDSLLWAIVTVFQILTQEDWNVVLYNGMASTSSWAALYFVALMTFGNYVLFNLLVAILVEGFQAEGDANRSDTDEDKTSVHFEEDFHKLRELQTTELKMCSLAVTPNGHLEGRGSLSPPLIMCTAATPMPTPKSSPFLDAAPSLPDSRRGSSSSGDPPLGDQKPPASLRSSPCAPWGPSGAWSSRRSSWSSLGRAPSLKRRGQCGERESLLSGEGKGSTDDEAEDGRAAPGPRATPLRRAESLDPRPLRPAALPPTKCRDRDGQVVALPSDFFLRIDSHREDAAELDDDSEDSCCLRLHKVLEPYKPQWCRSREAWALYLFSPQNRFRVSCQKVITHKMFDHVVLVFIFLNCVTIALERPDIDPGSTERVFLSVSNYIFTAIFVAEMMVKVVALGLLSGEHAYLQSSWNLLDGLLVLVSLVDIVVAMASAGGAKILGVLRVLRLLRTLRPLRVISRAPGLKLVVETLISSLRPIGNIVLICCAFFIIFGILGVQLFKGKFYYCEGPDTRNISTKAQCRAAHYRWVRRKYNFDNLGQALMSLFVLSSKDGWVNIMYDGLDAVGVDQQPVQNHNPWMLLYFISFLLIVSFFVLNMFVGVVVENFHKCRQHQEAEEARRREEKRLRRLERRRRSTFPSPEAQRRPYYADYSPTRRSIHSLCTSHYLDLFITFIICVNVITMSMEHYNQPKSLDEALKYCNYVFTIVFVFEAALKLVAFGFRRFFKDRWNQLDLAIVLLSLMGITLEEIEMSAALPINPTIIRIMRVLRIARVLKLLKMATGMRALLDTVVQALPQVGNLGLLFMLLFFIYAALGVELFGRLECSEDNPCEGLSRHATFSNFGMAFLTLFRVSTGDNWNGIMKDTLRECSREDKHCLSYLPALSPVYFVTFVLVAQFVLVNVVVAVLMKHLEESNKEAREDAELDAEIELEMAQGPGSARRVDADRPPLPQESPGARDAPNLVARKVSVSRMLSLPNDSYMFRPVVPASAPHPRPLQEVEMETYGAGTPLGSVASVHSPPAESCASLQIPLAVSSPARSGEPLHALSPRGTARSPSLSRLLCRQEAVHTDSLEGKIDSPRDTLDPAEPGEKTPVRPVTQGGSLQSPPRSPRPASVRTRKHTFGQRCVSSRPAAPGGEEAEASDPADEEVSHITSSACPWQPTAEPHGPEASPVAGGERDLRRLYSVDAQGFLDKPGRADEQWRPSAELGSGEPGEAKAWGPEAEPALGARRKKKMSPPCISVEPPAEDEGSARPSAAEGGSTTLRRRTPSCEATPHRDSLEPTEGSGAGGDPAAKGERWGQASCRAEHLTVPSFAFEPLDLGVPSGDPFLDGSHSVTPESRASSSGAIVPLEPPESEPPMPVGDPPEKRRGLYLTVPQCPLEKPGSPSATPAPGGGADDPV
Paired box protein Pax-8, sequence (Q06710 whole entry): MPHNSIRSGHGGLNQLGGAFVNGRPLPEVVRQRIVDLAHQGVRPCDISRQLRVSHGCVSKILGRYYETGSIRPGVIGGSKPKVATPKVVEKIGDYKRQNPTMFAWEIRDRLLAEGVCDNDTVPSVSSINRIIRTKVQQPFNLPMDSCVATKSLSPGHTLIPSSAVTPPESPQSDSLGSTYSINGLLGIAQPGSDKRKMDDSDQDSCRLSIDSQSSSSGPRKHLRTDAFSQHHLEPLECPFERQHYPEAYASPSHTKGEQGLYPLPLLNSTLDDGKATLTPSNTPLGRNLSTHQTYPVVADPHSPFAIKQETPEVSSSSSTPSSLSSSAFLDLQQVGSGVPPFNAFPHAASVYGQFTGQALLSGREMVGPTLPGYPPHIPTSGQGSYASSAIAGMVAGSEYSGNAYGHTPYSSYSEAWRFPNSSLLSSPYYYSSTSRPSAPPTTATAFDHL
DNA dC->dU-editing enzyme APOBEC-3G, sequence (Q9HC16 whole entry): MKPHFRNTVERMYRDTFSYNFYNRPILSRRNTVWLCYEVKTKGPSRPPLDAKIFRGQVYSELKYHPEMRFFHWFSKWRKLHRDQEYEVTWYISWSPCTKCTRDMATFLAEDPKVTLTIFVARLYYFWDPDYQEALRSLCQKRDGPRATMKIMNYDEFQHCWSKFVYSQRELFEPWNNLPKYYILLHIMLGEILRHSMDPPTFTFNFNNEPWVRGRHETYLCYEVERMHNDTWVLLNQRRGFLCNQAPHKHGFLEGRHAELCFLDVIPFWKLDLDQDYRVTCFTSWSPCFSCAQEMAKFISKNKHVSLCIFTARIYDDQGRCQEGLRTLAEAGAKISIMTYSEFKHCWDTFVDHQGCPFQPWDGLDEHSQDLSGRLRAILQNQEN

SMILES: O=C(c1ccc(F)cc1F)C1CCN(c2ccc([N+](=O)[O-])cn2)CC1
- EC50 [1]: > 35.4 µM (not active)
- EC50 [2]: > 260 µM (inactive)
- EC50 [3]: 27.5 µM (not active)
- EC50 [4]: > 35.4 µM (not active)

SMILES: Cc1nc2ccccc2c2oc(C(=O)NCC3COc4ccccc4O3)cc12 (configuration not stated)
- IC50 [5]: 4.14 µM (active)
- IC50 [6]: > 20 µM (inactive)
- EC50 [7]: 4.75 µM (active)
- IC50 [8]: 3.93 µM (inactive)
- EC50 [9]: 4.69 µM (active)
- IC50 [10]: 8.6 µM (active)
- EC50 [11]: 7.77 µM (active)

SMILES: N#Cc1c(-c2ccncc2)c2c([nH]c1=S)CCCC2
- IC50 [12]: > 100 µM (inactive)
- IC50 [13]: 2.21 µM (active)

SMILES: CC(=O)n1cc(N(C(=O)CCl)c2ccccc2)c2ccccc21
- CC50 [14]: 1.16 µM (active)
- EC50 [15]: 0.347 µM (active)
- AC50 [16]: 2.3 µM (active)
- EC50 [17]: 0.654 µM (inconclusive)
- EC50 [18]: 5.99 µM (active)
- AC50 [19]: 4.84 µM (active)
- EC50 [20]: 1.51 µM (inconclusive)
- EC50 [21]: 0.912 µM (active)
- AC50 [22]: 1.34 µM (active)
